Laboratory results published in PMC9200803, “Design, synthesis, and biological evaluation of tetrahydroquinolinones and tetrahydroquinolines with anticancer activity” (Scientific Reports, 2022).

Key:
[1] = test system: hMLH1-proficient (MMR+) RKO cells; assay: MTT cell viability assay, hMLH1-proficient (MMR+) RKO; assay type: cell-based; conditions: Homo sapiens, mean ± SD
From the text: We further attempted to determine whether 20d-induced cancer cell death was related to the induction of ROS production in HCT-116 cells. For this purpose, we pretreated cells with N-acetyl-L-cysteine (NAC), which is a commonly used antioxidant and ROS scavenger. […] HCT-116 cell line has high-frequency microsatellite instability, which is associated with deficient DNA mismatch repair (MMR)[31]. The MMR system corrects DNA-mismatched and insertion–deletion loop bases generated during DNA replication. One of the key proteins involved in the MMR pathway is MLH1, which is mutated or epigenetically silenced in many MMR-deficient (MMR^–) cells, such as HCT-116[33]. To further determine the selectivity for MMR deficiency, we analyzed the cell viability of human MutL homologue 1 (hMLH1)-deficient (MMR^–) and hMLH1-proficient (MMR^+) RKO human colon carcinoma cell lines. The latter was established by transfecting hMLH1 cDNA into MMR^− RKO cell line[34]. In MMR^– RKO cells, the hMLH1 gene promoter was silenced transcriptionally by hypermethylation. […]
The viability of cells was determined in response to the newly synthesized compounds using the MTT (Sigma-Aldrich) assay. […] Next, the medium was removed, the formazan product formed was dissolved in 100 μl of DMSO, and the absorbance was determined at 540 nm using an ASYS UVM340 microplate reader (Biochrom Ltd.). […]

MCF-7 cells = assay: MTT cell viability assay, MCF-7; assay type: cell-based, human; conditions: Homo sapiens, MCF7, 72 h, IC50 ± SD
Experimental: (§1) To evaluate the effects of the newly synthesized tetrahydroquinolin-2(1H)-one derivatives on cell viability, we treated human colon cancer cells HCT-116, human breast cancer cells MCF-7, and human non-small cell lung cancer cells A-549 with different concentrations of the compounds for 72 h. After incubation, the MTT (3-(4,5-dimethylthiazol-2-yl)-2,5-diphenyltetrazolium bromide) assay was performed and the cytotoxic potency of compounds (expressed in IC50) on the cells was determined in comparison to control cells treated with 1% of dimethyl sulfoxide (DMSO) (Table 1). […] We also compared the activity of 20d and 19b to the reference control drug Cisplatin, which is widely used in chemotherapy.
(§2) A-549 (CCL-185) and MCF-7 ([…]) cells were cultured in RPMI-1640 medium, while HCT-116 (CVCL-427), (hMLH1)-deficient (MMR^–) and hMLH1-proficient (MMR^+) RKO cells were cultured in McCoy’s 5A medium. The culture media were supplemented with 10% fetal bovine serum, 2 mM L-glutamine, and antibiotics (penicillin 62.6 µg/ml and streptomycin 40 µg/ml). Cultivation of cell lines was carried out at 37 °C under a humidified atmosphere containing 5% CO2, and the cultures were routinely screened for Mycoplasma contamination. A-549, MCF-7, and HCT-116 cells were obtained from American Type Culture Collection (ATCC), while RKO colon carcinoma cells were a kind gift of Dr Timothy Kinsella (Brown University, USA).
(§3) The viability of cells was determined in response to the newly synthesized compounds using the MTT (Sigma-Aldrich) assay. Briefly, cells were seeded into 96-well plates and allowed to attach overnight. Then, cells were exposed to various concentrations of compounds for 24, 48 or 72 h. Negative controls were treated with the same amount of DMSO solvent (1%). After treatment, the MTT solution (0.4 mg/ml) was added to each well and allowed to react with cells for 2–3 h at 37 °C. Next, the medium was removed, the formazan product formed was dissolved in 100 μl of DMSO, and the absorbance was determined at 540 nm using an ASYS UVM340 microplate reader (Biochrom Ltd.). The IC50 value, which represents the concentration of the compound required to inhibit cell growth by 50% compared to vehicle, was calculated using GraphPad Prism 8 software based on the curves plotting survival against dose averaged from at least three independent experiments.

A-549 cells = assay: MTT cell viability assay, A-549; assay type: cell-based, human
Experimental: as §1, §2, §3

HCT-116 cells = assay: Annexin V-FITC / PI staining, flow cytometry; assay type: cell-based, human; conditions: HCT-116, Annexin V/PI
From the text: Due to its ability to mediate the redox signaling pathways, ROS interplays between two major types of programmed cell death: autophagy and apoptosis. One of the early events in the process of apoptosis is the translocation of phosphatidylserine to the exposed membrane surface, which can be detected using Annexin V, a protein with a high affinity to this phospholipid. In order to study the impact of 20d on apoptotic cell death, flow cytometry analyses with double-staining using Annexin V-fluorescein isothiocyanate (FITC) conjugate and propidium ioidide (PI) was performed.
To determine the proapoptotic activity of compounds, cells were seeded into Petri dishes. […] DMSO (1%, Merck) and Etoposide (10 μM, Sigma-Aldrich) were used as references. Cells were harvested and stained with FITC-Annexin V, (Thermo Fisher, V13242) according to the manufacturer’s instructions. Finally, cells were stained with propidium iodide (Thermo Fisher) and assessed using a Guava easyCyte 8 cell sorter (Merck Millipore). The results were analyzed using FlowJo v10 software.

[2] = test system: hMLH1-deficient RKO cells; assay: ROS level, H2DCFDA probe, MMR-deficient RKO; assay type: cell-based, human; conditions: 1 h of exposure, vs control
Experimental: Then, we confirmed whether the induction of cellular stress by 20d is related to MMR deficiency by exposing MMR-deficient and MMR-proficient cells to the compound for different times and measuring the ROS levels. Our results indicated a greater increase in the level of ROS after 1 h of exposure in 20d-treated MMR-deficient cells than in MMR-proficient cells (54.71 ± 2.70% and 22.27 ± 1.7%, respectively), in comparison to control (Fig. 7).
The […] ROS levels were determined using an H2DCFDA (2′,7′-dichlorodihydrofluorescein diacetate) probe (Thermo Fisher) following the manufacturer’s protocol. […] DMSO (1%, Merck) and 250 μM H2O2 were used as a negative and positive control, respectively. NAC (500 μM, Sigma-Aldrich) was used as an ROS scavenger to confirm the ROS activity. After treatment with 20d and 19b, cells were incubated with H2DCFDA at 37 °C for 30 min. Subsequently, cells were harvested by trypsinization, rinsed with PBS, and stained with 7-AAD (Thermo Fisher). Finally, the stained cells were analyzed by flow cytometry using a Guava easyCyte 8 cell sorter (Merck Millipore) and FlowJo v10 software.

O=C(Nc1cccc(F)c1)OC1CCCc2c(-c3ccccc3)cc(=O)[nH]c21 (stereo not drawn) [Compound 20d, (2-oxo-4-phenyl-5,6,7,8-tetrahydroquinolin-8-yl) N-(3-fluorophenyl)carbamate]
IC50 [1]: 4.78 ± 0.38 µM
IC50 (MCF-7 cells): > 50 µM
fold lower concentration than Cisplatin suppressing 50% of cell viability (A-549 cells; A-549): 5 fold
IC50 (A-549 cells; Homo sapiens, A549, MTT, 72 h, IC50 ± SD): 12.6 ± 0.54 µM
early and late apoptotic and necrotic fractions (HCT-116 cells): on the same level as in DMSO-treated group
increase in the level of ROS [2]: 54.71 ± 2.70%
